In patent US9963434B2, “N-arylmethyl sulfonamide negative modulators of NR2A” (LUC THERAPEUTICS, priority 2013, dated 2018):
Read-outs that look alike come from different tables or passages of the source.

Molecular target: NR1/NR2A (Homo sapiens (Human), UniProt Q05586+Q12879)
Test: FDSS Ca2+ influx inhibition assay in HEK293 cells expressing NR1/NR2A
Format: cell-based
Conditions: 3 μM glutamate, 3 μM glycine, 1 mM Ca2+
How it was run: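 Fluo-8-loaded HEK293 NR1/NR2A cells preincubated 10 min with compound at 10 μM final (0.1% DMSO) in Ca2+/Mg2+-free HBSS with 20 mM HEPES. Stimulated with 3 μM glutamate, 3 μM glycine, 1 mM Ca2+; FDSS recording for 3 min, end/baseline fluorescence ratio compared with MK801.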

[1] = inhibition relative to MK801, read-out: NR2A IC50

NR1/NR2A, sequence (Q12879 23-1464, other chains not shown): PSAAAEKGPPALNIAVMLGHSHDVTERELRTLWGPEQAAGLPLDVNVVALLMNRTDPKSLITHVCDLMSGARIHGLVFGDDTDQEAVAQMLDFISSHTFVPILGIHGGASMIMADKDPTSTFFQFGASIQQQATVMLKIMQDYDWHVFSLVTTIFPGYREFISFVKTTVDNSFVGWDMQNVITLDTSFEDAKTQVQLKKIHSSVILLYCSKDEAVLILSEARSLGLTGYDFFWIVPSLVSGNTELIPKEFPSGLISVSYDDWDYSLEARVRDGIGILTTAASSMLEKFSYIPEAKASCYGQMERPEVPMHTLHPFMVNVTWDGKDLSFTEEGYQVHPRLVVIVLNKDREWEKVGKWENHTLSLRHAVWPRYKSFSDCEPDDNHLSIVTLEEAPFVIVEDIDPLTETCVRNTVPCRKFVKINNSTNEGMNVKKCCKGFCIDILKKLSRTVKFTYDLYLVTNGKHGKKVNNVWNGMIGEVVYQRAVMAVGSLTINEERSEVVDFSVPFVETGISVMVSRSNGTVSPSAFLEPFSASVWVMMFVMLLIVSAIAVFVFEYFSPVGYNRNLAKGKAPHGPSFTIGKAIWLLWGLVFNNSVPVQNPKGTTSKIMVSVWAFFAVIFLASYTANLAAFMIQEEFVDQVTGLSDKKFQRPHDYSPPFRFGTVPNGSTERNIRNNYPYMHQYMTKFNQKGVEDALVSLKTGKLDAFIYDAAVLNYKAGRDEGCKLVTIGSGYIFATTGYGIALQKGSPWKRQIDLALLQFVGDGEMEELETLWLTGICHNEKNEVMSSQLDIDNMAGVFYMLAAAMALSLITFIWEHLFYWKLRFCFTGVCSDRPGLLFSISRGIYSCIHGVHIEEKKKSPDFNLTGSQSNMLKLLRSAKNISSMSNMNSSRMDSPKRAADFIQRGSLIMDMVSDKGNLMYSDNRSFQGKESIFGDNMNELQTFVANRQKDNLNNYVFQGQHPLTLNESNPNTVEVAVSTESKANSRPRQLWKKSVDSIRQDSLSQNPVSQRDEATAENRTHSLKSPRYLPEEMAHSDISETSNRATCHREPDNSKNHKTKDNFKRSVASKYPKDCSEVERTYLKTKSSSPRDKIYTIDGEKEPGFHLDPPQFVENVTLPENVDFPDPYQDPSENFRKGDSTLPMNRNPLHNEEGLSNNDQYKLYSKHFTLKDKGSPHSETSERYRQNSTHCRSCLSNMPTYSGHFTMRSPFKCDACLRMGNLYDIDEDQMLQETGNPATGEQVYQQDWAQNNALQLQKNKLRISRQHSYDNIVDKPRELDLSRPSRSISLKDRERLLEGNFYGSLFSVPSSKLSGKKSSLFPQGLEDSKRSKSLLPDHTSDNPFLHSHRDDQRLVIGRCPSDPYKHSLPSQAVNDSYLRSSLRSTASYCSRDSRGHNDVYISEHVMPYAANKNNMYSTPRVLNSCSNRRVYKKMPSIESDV

SMILES	IC50 (read-out: Binned Activity) [µM]	IC50 [1] [µM]
Cc1nnc(CNC(=O)c2ccc(CNS(=O)(=O)c3ccc(F)c(Cl)c3)cn2)s1 [5-(3-chloro-4-fluorobenzenesulfon-amidomethyl)-N-[(5-methyl-1,3,4-thiadiazol-2-yl)methyl]pyridine-2-carboxamide]	1 to 10	
Cc1cnc(CNC(=O)c2cnc(CNS(=O)(=O)c3ccc(F)c(Cl)c3)cn2)cn1 [5-(3-chloro-4-fluorobenzenesulfon-amidomethyl)-N-[(5-methylpyrazin-2-yl)methyl]pyrazine-2-carboxamide]	1 to 10	
Cc1ccc(CNC(=O)c2cnc(CNS(=O)(=O)c3ccc(F)c(Cl)c3)cn2)s1 [5-(3-chloro-4-fluorobenzenesulfon-amidomethyl)-N-[(5-methylthiophen-2-yl)methyl]pyrazine-2-carboxamide]	> 10	10
Cc1ccc(CNC(=O)c2ccc(CNS(=O)(=O)c3ccc(F)c(Cl)c3)cn2)s1 [5-(3-chloro-4-fluorobenzenesulfon-amidomethyl)-N-[(5-methylthiophen-2-yl)methyl]pyridine-2-carboxamide]	> 10	10
COc1ccc(CNC(=O)c2cnc(CNS(=O)(=O)c3ccc(F)c(Cl)c3)cn2)cn1 [5-(3-chloro-4-fluorobenzenesulfon-amidomethyl)-N-[(6-methoxypyridin-3-yl)methyl]pyrazine-2-carboxamide]	> 10	10
COc1ccc(CNC(=O)c2ccc(CNS(=O)(=O)c3ccc(F)c(Cl)c3)cn2)cn1 [5-(3-chloro-4-fluorobenzenesulfon-amidomethyl)-N-[(6-methoxypyridin-3-yl)methyl]pyridine-2-carboxamide]	1 to 10	
Cc1cccc(CNC(=O)c2cnc(CNS(=O)(=O)c3ccc(F)c(Cl)c3)cn2)n1 [5-(3-chloro-4-fluorobenzenesulfon-amidomethyl)-N-[(6-methylpyridin-2-yl)methyl]pyrazine-2-carboxamide]	> 10	10
Cc1cccc(CNC(=O)c2ccc(CNS(=O)(=O)c3ccc(F)c(Cl)c3)cn2)n1 [5-(3-chloro-4-fluorobenzenesulfon-amidomethyl)-N-[(6-methylpyridin-2-yl)methyl]pyridine-2-carboxamide]	> 10	10
Cc1nc(C)c(CNC(=O)c2cnc(CNS(=O)(=O)c3ccc(F)c(Cl)c3)cn2)s1 [5-(3-chloro-4-fluorobenzenesulfon-amidomethyl)-N-[(dimethyl-1,3-thiazol-5-yl)methyl]pyrazine-2-carboxamide]	> 10	10
Cc1nc(C)c(CNC(=O)c2ccc(CNS(=O)(=O)c3ccc(F)c(Cl)c3)cn2)s1 [5-(3-chloro-4-fluorobenzenesulfon-amidomethyl)-N-[(dimethyl-1,3-thiazol-5-yl)methyl]pyridine-2-carboxamide]	> 10	10
O=C(NCc1ncccc1C(F)(F)F)c1cnc(CNS(=O)(=O)c2ccc(F)c(Cl)c2)cn1 [5-(3-chloro-4-fluorobenzenesulfon-amidomethyl)-N-{[3-(trifluoromethyl)pyridin-2-yl]methyl}pyrazine-2-carboxamide]	> 10	10
O=C(NCc1ncccc1C(F)(F)F)c1ccc(CNS(=O)(=O)c2ccc(F)c(Cl)c2)cn1 [5-(3-chloro-4-fluorobenzenesulfon-amidomethyl)-N-{[3-(trifluoromethyl)pyridin-2-yl]methyl}pyridine-2-carboxamide]	> 10	10
O=C(NCc1ncc(C(F)(F)F)cc1Cl)c1cnc(CNS(=O)(=O)c2ccc(F)c(Cl)c2)cn1 [5-(3-chloro-4-fluorobenzenesulfon-amidomethyl)-N-{[3-chloro-5-(trifluoromethyl)pyridin-2-yl]methyl}pyrazine-2-carboxamide]	> 10	10
O=C(NCc1ncc(C(F)(F)F)cc1Cl)c1ccc(CNS(=O)(=O)c2ccc(F)c(Cl)c2)cn1 [5-(3-chloro-4-fluorobenzenesulfon-amidomethyl)-N-{[3-chloro-5-(trifluoromethyl)pyridin-2-yl]methyl}pyridine-2-carboxamide]	> 10	10
COc1cccc(CNC(=O)c2ccc(CNS(=O)(=O)c3ccc(F)c(Cl)c3)cn2)c1 [5-(3-chloro-4-fluorobenzenesulfon-midomethyl)-N-[(3-methoxyphenyl)methyl] pyridine-2-carboxamide]	1 to 10	
Cc1ncc(CNC(=O)c2cnc(CNS(=O)(=O)c3cccc(Cl)c3)cn2)s1 [5-(3-chlorobenzenesulfon-amidomethyl)-N-[(2-methyl-1,3-thiazol-5-yl)methyl]pyrazine-2-carboxamide]	0.1 to 1	
Cc1ncc(CNC(=O)c2ccc(CNS(=O)(=O)c3cccc(Cl)c3)cn2)s1 [5-(3-chlorobenzenesulfon-amidomethyl)-N-[(2-methyl-1,3-thiazol-5-yl)methyl]pyridine-2-carboxamide]	1 to 10	
Cc1ncc(CNC(=O)c2cnc(CNS(=O)(=O)c3cccc(Cl)c3)c(C)n2)s1 [5-(3-chlorobenzenesulfon-midomethyl)-6-methyl-N-[(2-methyl-1,3-thiazol-5-yl)methyl]pyrazine-2-carboxamide]	< 0.1	

SMILES	IC50 (read-out: Binned Activity) [µM]	IC50 [1] [µM]
Cc1ncc(CNC(=O)c2cnc(CNS(=O)(=O)c3ccc(Cl)c(F)c3)c(C)n2)s1 [5-(4-chloro-3-fluorobenzenesulfon-amidomethyl)-6-methyl-N-[(2-methyl-1,3-thiazol-5-yl)methyl]pyrazine-2-carboxamide]	1 to 10	
Cc1ncc(CNC(=O)c2cnc(CNS(=O)(=O)c3ccc(Cl)c(F)c3)cn2)s1 [5-(4-chloro-3-fluorobenzenesulfon-amidomethyl)-N-[(2-methyl-1,3-thiazol-5-yl)methyl]pyrazine-2-carboxamide]	> 10	10
Cc1ncc(CNC(=O)c2ccc(CNS(=O)(=O)c3ccc(Cl)c(F)c3)cn2)s1 [5-(4-chloro-3-fluorobenzenesulfon-amidomethyl)-N-[(2-methyl-1,3-thiazol-5-yl)methyl]pyridine-2-carboxamide]	1 to 10	
Cc1ncc(CNC(=O)c2cnc(CNS(=O)(=O)c3ccc(F)cc3)c(C)n2)s1 [5-(4-fluorobenzenesulfon-amidomethyl)-6-methyl-N-[(2-methyl-1,3-thiazol-5-yl)methyl]pyrazine-2-carboxamide]	0.1 to 1	
Cc1ncc(CNC(=O)c2ccc(CNS(=O)(=O)c3ccc(F)cc3)cn2)s1 [5-(4-fluorobenzenesulfon-amidomethyl)-N-[(2-methyl-1,3-thiazol-5-yl)methyl]pyridine-2-carboxamide]	1 to 10	
Cc1ncc(CNC(=O)c2cnc(CNS(=O)(=O)c3ccc(F)cc3)cn2)s1 [5-(4-fluorobenzenesulfon-midomethyl)-N-[(2-methyl-1,3-thiazol-5-yl)methyl]pyrazine-2-carboxamide]	1 to 10	
Cc1ncc(CNC(=O)c2cnc(CNS(=O)(=O)c3cc(Cl)ccc3F)c(C)n2)s1 [5-(5-chloro-2-fluorobenzenesulfon-amidomethyl)-6-methyl-N-[(2-methyl-1,3-thiazol-5-yl)methyl]pyrazine-2-carboxamide]	1 to 10	
Cc1ncc(CNC(=O)c2cnc(CNS(=O)(=O)c3cc(Cl)ccc3F)cn2)s1 [5-(5-chloro-2-fluorobenzenesulfon-amidomethyl)-N-[(2-methyl-1,3-thiazol-5-yl)methyl]pyrazine-2-carboxamide]	> 10	10
Cc1ncc(CNC(=O)c2ccc(CNS(=O)(=O)c3cc(Cl)ccc3F)cn2)s1 [5-(5-chloro-2-fluorobenzenesulfon-amidomethyl)-N-[(2-methyl-1,3-thiazol-5-yl)methyl]pyridine-2-carboxamide]	> 10	10
Cc1ncc(CNC(=O)c2ccc(CNS(=O)(=O)c3ccc(Cl)s3)cn2)s1 [5-(5-chlorothiophene-2-sulfonamidomethyl)-N-[(2-methyl-1,3-thiazol-5-yl)methyl]pyridine-2-carboxamide]	> 10	10
Cc1ncc(CNC(=O)c2ccc(CNS(=O)(=O)c3ccc(Cl)nc3)cn2)s1 [5-(6-chloropyridine-3-sulfonamidomethyl)-N-[(2-methyl-1,3-thiazol-5-yl)methyl]pyridine-2-carboxamide]	> 10	10
Cc1ncc(CNC(=O)c2ccc(CNS(=O)(=O)c3ccc(Cl)c4nonc34)cn2)s1 [5-(7-chloro-2,1,3-benzoxadiazole-4-sulfonamidomethyl)-N-[(2-methyl-1,3-thiazol-5-yl)methyl]pyridine-2-carboxamide]	> 10	10
Cc1ncc(CNC(=O)c2ccc(CNS(=O)(=O)c3ccoc3)cn2)s1 [5-(furan-3-sulfonamidomethyl)-N-[(2-methyl-1,3-thiazol-5-yl)methyl]pyridine-2-carboxamide]	> 10	10
Cc1ncc(CNC(=O)c2cnc(CNC(=O)c3ccc(Cl)cc3Cl)cn2)s1 [5-{[(2,4-dichlorophenyl)form-amido]methyl}-N-[(2-methyl-1,3-thiazol-5-yl)methyl]pyrazine-2-carboxamide]	> 10	10
Cc1ncc(CNC(=O)c2ccc(CNC(=O)c3ccc(Cl)cc3Cl)cn2)s1 [5-{[(2,4-dichlorophenyl)form-amido]methyl}-N-[(2-methyl-1,3-thiazol-5-yl)methyl]pyridine-2-carboxamide]	> 10	10
Cc1ncc(CNC(=O)c2cnc(CNC(=O)c3ccc(Cl)c(Cl)c3)cn2)s1 [5-{[(3,4-dichlorophenyl)form-amido]methyl}-N-[(2-methyl-1,3-thiazol-5-yl)methyl]pyrazine-2-carboxamide]	> 10	10
Cc1ncc(CNC(=O)c2ccc(CNC(=O)c3ccc(Cl)c(Cl)c3)cn2)s1 [5-{[(3,4-dichlorophenyl)form-amido]methyl}-N-[(2-methyl-1,3-thiazol-5-yl)methyl]pyridine-2-carboxamide]	> 10	10
